Assay: acetaldehyde in saliva of testees during smoking through cigarette holder with filter (headspace gas chromatography)
Type: in vivo, human
Conditions: FIG. 1
Description: The entire filter of Marlboro Red was removed or, in some tests, 2-3 mm of the original filter was left in the cigarette.
In the tests, ready commercial cigarette holders/mouthpieces of Denicotea, www.denicotea.de were used. In the cigarette holders/mouthpieces, plastic cylinder-shaped “containers” were used, the filtering material being packed in the containers. The original content (intended for the removal of nicotine) of the containers was removed and replaced with the material that was used in the study. The outer dimensions of the container were: diameter 8 mm and length 35 mm.
Cellulose wadding (c. 100 mg), filter paper (Whattman), Commercial filters: Smart (the importer: Altadia Finland Oy) and Ventti (Philip Morris Finland Oy),
Cysteine was dissolved in distilled water, 30-180 mg of L-Cysteine/1 ml. The manufacturer: Fluka, 30089.
The filter material that had been packed in plastic cylinders was moistened with a water-cysteine solution (50-250 μl), and the filter container thus made was placed in the Denicotea cigarette holder. After this, the testees smoked the cigarettes that had been placed in the mouthpieces. During smoking, saliva samples were collected from those participating in the tests and the acetaldehyde in the saliva was analyzed by gas chromatography, Perkin-Elmer, HS40, headspace Gas Chromatograph.

N[C@@H](CS)C(=O)O [cysteine, L-Cysteine]
filterability, dependence on amount: dependent on the amount of cysteine
